Assay results from ChEMBL document CHEMBL1201862, “PubChem BioAssay data set” (2004).
Calls of active or inactive are those of the source.

Legend:
[1] = target: Genome polyprotein (dengue virus type 2, UniProt P29990); test: flavivirus cap methylation enzyme inhibition – biochemical, confirmation dose response, primary screen (AID 588689); format: functional
[2] = target: Bifunctional protein GlmU (Mycobacterium tuberculosis, UniProt P9WMN3); test: Inhibitors of Mycobacterial Glucosamine-1-phosphate acetyl transferase (GlmU). Secondary screen.; design: species or system Mycobacterium tuberculosis H37Rv
Bifunctional protein GlmU, sequence (P9WMN3 whole entry): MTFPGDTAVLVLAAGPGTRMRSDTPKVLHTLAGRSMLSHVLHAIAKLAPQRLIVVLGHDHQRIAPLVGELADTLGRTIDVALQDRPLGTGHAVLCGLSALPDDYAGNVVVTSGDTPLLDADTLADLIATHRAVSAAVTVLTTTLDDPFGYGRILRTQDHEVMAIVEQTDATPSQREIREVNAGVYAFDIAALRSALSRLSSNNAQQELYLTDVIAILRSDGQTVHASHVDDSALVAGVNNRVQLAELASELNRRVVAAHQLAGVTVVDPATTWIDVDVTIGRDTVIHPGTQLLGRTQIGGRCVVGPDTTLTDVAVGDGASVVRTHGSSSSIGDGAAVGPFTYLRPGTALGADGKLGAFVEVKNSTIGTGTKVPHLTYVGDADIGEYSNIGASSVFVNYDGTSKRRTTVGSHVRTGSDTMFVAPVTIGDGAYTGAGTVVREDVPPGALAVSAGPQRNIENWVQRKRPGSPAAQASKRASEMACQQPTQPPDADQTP

[3] = target: Neurotensin receptor type 1 (Homo sapiens, UniProt P30989); format: functional;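 also: Image-based confirmatory dose-response assay measuring agonist activity at NTR1; NTR1-expressing U2OS osteosarcoma cells imaged for beta-arrestin GFP spot formation; agonist potency where compounds increase beta-arrestin recruitment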
[4] = target: Lysine-specific demethylase 4C (Homo sapiens, UniProt Q9H3R0); test: inhibition of JMJD2C H3K9me3 demethylation – biochemical, DELFIA europium, cherry-picked samples, dose response (AID 488835); format: functional
Lysine-specific demethylase 4C, sequence (Q9H3R0 whole entry): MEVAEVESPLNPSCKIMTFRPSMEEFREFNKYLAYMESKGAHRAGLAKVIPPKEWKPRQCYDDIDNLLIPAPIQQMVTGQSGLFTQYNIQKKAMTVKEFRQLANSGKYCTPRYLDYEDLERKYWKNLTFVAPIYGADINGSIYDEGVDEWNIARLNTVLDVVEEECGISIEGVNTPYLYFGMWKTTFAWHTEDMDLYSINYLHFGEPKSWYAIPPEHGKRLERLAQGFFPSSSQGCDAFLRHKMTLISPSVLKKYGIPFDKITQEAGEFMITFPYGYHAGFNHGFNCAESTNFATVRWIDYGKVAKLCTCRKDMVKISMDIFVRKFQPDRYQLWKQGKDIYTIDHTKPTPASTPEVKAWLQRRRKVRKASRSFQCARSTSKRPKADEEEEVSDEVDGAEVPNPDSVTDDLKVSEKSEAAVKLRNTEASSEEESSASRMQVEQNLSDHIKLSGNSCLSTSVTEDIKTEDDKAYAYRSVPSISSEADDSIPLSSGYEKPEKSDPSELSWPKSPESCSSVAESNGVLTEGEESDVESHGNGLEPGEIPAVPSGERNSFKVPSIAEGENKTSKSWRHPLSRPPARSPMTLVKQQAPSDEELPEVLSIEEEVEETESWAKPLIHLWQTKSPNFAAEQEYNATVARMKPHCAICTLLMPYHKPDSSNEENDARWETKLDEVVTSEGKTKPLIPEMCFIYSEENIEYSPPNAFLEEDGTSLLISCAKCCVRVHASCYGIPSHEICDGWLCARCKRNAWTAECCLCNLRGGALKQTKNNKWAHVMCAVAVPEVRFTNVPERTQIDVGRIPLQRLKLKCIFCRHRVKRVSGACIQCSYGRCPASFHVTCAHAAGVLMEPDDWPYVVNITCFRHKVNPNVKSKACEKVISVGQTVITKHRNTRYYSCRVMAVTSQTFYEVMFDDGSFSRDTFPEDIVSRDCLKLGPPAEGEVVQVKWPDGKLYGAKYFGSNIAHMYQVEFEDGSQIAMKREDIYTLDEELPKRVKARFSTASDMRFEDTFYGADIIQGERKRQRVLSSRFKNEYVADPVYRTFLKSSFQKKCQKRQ

[5] = target: T1, Probable nicotinate-nucleotide adenylyltransferase (Staphylococcus aureus (strain N315), UniProt P65502); format: functional, Staphylococcus aureus subsp. aureus N315; details: read-out: IC50_Mean;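 as to IC50 Mean: confirmatory dose-response retesting of NadD inhibitor hits first found in an ultra-high-throughput screen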
T1 sequence (P65502 whole entry): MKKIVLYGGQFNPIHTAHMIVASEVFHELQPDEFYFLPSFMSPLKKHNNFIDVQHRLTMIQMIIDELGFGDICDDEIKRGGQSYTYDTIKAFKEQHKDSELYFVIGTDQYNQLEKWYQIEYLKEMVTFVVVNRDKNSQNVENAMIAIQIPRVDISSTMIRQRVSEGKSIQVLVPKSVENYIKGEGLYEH

[6] = target: Peroxisome proliferator-activated receptor gamma/Nuclear receptor coactivator 2 (Homo sapiens, UniProt P37231); test: (§1) TR-FRET dose response biochemical High Throughput Screening assay for agonists of the steroid receptor coactivator 2 (SRC-2) recruitment by the peroxisome proliferator-activated receptor gamma (PPAR gamma): non-selective agonists. [Related pubchem assays: 1297, 1032 ]; format: functional
[7] = tested on: Streptococcus sp. 'group A'; test: Streptococcus pyogenes SK(-)GAS viability under kanamycin – luminescence, BacTiterGlo, confirmation, counter-screen for streptokinase expression inhibitor project, dose response (AID 1900); format: functional, organism-based
[8] = target: Peroxisome proliferator-activated receptor gamma/Nuclear receptor coactivator 1 (Homo sapiens, UniProt P37231); test: as §1, with “1 (SRC-1)” for “2 (SRC-2)”, “assays (depositor defined):AID1300, AID1808, AID504735, AID631]” for “assays: 1297, 1032 ]”; format: protein assay
[9] = fluconazole-exposed Candida albicans growth modulators – fluorescence, retest, confirmation (AID 2467); format: functional, cell-based
[10] = target: T2, Aminopeptidase N (Plasmodium falciparum FcB1/Columbia, UniProt O96935); test: malaria alanyl aminopeptidase activity blockers – biochemical, fluorogenic H-Leu-NHMec substrate, 1536-well (AID 1445); design: species or system Plasmodium falciparum 3D7, 3D7
T2 sequence (O96935 whole entry): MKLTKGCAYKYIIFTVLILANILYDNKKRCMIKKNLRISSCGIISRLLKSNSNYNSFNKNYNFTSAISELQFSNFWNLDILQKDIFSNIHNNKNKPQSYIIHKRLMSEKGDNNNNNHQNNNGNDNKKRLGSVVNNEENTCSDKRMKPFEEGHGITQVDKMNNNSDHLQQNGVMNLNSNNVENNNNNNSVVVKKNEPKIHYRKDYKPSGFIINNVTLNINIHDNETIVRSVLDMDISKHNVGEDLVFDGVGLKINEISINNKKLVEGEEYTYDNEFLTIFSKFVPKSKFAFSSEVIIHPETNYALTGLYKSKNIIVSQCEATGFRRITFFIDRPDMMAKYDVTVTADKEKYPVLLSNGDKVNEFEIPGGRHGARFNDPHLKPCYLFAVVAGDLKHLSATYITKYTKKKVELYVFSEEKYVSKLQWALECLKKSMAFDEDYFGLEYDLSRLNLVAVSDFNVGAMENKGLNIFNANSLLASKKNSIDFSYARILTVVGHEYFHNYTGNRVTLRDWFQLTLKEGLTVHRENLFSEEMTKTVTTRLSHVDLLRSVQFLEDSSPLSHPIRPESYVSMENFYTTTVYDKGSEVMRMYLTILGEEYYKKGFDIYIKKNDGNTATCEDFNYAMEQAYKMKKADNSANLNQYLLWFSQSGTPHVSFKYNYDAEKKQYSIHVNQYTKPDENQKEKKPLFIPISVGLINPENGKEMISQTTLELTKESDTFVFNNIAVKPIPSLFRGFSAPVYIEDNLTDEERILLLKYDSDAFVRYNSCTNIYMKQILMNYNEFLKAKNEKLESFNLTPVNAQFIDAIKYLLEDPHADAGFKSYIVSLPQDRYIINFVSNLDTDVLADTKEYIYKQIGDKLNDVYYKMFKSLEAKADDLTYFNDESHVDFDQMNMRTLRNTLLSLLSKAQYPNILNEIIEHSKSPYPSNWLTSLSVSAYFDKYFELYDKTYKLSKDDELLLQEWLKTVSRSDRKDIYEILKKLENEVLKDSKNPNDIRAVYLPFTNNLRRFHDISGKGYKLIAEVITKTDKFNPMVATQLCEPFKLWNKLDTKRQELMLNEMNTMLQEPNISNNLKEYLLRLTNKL

[11] = tested on: Vero; test: viability of Vero cells under compound – cytotoxicity control for flavivirus capping enzyme inhibitors (AID 588742); format: functional; details: Chlorocebus sabaeus
[12] = tested on: Streptococcus; test: GAS UMAA2166 growth inhibition – luminescence, BacTiterGlo, counter-screen for streptokinase expression inhibitor project, dose response (AID 1915); format: functional, organism-based;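 also: potency for reduction of bacterial viability or growth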
[13] = target: T1, Probable nicotinate-nucleotide adenylyltransferase; format: functional, Staphylococcus aureus subsp. aureus N315
[14] = target: T3, Streptokinase A (Streptococcus pyogenes serotype M1, UniProt P10520); test: viability-normalized secreted streptokinase activity reduction – plasminogen activation absorbance, OD405, dose response (AID 1914); format: functional, Streptococcus pyogenes M1 GAS;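 also: secreted streptokinase activity via plasminogen activation per viability signal from cell pellet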
T3 sequence (P10520 whole entry): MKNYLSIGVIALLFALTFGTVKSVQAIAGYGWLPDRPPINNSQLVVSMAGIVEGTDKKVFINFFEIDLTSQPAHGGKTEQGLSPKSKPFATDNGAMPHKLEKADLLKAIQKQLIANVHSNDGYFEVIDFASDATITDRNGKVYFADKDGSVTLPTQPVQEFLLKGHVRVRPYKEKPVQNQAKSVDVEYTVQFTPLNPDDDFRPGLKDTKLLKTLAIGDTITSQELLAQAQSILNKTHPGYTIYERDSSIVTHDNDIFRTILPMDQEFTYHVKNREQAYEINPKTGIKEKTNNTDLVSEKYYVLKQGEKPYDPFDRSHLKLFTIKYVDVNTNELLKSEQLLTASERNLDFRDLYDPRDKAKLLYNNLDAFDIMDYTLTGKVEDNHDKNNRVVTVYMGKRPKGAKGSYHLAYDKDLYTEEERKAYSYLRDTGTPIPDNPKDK

[15] = target: T4, Serine/threonine-protein phosphatase (Candida dubliniensis (strain CD36 / CBS 7987 / NCPF 3949 / NRRLY-17841) (Yeast), UniProt B9W6M3); test: blockers of CaCl2-induced CDRE-lacZ signaling – S. cerevisiae, luminescence, secondary, dose response (AID 2388); format: functional, cell-based;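 also: yeast reporter cells carrying a calcineurin-responsive lacZ construct stimulated with calcium chloride; luminescent beta-galactosidase reporter signal in whole cells rather than isolated phosphatase activity; potency for inhibition where a drop in reporter signal means calcineurin blockade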
T4 sequence (B9W6M3 whole entry): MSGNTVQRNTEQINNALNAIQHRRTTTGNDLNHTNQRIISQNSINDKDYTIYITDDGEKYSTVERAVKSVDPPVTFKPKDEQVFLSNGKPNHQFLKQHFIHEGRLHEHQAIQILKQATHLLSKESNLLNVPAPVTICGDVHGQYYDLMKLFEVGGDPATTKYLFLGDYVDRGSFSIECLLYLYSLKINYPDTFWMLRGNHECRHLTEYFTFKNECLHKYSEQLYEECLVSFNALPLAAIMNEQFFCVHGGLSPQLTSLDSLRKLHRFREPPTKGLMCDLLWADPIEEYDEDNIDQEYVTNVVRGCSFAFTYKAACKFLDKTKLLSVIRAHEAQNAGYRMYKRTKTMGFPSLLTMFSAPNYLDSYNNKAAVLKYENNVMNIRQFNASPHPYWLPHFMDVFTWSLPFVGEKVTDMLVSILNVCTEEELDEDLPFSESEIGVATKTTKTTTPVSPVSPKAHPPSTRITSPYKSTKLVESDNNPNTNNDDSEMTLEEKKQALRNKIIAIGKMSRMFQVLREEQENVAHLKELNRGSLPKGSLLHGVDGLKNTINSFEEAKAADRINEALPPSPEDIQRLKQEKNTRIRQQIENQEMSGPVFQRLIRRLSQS

[16] = tested on: Escherichia coli; test: microbe, parasite or virus in culture
[17] = target: ATP-dependent molecular chaperone HSP82 (Candida albicans (strain WO-1) (Yeast), UniProt C4YTQ8); test: steroid-induced GRE reporter decrease in yeast – S. cerevisiae, luminescence, Hsp90 inhibitor project, dose response (AID 2400); format: functional, cell-based;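 also: beta-galactosidase luminescence from glucocorticoid response element reporter as proxy for Hsp90 function; inhibitor potency where signal loss means Hsp90 inhibition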
ATP-dependent molecular chaperone HSP82, sequence (C4YTQ8 whole entry): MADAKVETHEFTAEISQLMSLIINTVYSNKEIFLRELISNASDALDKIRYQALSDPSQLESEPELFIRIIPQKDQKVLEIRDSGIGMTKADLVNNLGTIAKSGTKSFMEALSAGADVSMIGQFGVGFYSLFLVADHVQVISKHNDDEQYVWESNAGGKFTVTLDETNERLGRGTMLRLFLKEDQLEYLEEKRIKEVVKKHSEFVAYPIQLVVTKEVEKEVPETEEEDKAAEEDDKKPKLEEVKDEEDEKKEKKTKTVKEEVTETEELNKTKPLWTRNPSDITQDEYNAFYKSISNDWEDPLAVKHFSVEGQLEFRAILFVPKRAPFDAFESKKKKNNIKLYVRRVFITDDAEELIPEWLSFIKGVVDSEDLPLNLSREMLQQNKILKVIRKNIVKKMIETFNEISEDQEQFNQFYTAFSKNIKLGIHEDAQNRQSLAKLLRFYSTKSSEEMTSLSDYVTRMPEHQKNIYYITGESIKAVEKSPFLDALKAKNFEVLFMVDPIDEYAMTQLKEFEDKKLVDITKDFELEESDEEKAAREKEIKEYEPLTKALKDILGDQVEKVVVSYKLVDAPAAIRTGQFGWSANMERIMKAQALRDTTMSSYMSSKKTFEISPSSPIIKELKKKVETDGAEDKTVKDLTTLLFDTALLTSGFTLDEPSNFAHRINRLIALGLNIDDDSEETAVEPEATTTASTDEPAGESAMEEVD

[18] = target: Peroxisome proliferator-activated receptor gamma/Nuclear receptor coactivator 3 (Homo sapiens, UniProt P37231); test: as §1, with “3 (SRC-3)” for “2 (SRC-2)”, “1301 (Confirmation screen.), 1048 (Primary screen.)]” for “1297, 1032 ]”; format: functional
[19] = target: Induced myeloid leukemia cell differentiation protein Mcl-1 (Homo sapiens, UniProt Q07820); format: functional
Induced myeloid leukemia cell differentiation protein Mcl-1, sequence (Q07820 whole entry): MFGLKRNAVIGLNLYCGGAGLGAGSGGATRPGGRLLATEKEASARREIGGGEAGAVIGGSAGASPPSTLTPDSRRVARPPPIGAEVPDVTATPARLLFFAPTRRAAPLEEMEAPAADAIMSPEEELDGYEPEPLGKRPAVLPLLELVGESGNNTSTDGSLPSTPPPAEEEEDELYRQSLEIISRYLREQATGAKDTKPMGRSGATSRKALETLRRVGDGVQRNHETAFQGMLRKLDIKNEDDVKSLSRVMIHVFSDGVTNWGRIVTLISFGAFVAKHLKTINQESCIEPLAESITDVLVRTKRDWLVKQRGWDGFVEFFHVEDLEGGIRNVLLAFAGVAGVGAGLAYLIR

[20] = NIH-3T3 fibroblast cytotoxicity, dose response, cytotoxicity control, cell-based, fluorescence, Alamar Blue, secondary assay (AID 2327); format: functional;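 also: NIH-3T3 mouse fibroblasts cultured with fluconazole at 8 µg/mL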
[21] = target: T5, Tyrosine-protein phosphatase non-receptor type 22 (Homo sapiens, UniProt Q9Y2R2); format: functional
T5 sequence (Q9Y2R2 whole entry): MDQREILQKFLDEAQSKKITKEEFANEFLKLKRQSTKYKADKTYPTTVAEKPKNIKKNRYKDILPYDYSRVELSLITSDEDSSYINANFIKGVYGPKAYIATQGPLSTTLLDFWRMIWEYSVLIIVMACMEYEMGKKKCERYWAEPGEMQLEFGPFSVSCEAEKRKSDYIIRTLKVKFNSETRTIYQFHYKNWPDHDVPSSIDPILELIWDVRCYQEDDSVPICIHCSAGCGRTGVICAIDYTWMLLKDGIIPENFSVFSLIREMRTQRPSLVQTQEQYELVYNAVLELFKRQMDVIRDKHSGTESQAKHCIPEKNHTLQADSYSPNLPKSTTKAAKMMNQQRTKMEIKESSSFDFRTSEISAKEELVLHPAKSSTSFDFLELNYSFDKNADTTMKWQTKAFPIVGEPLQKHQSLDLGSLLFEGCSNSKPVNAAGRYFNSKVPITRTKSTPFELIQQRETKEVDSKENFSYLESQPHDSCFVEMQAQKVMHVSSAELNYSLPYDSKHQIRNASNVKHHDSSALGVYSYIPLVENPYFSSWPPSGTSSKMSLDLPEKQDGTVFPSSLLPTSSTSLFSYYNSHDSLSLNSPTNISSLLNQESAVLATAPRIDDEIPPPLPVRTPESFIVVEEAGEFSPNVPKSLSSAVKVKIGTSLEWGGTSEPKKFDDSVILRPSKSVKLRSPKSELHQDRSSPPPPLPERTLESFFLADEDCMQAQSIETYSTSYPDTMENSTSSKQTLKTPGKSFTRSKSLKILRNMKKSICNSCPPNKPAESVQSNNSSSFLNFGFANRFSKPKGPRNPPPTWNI

[22] = target: T5, Tyrosine-protein phosphatase non-receptor type 22; format: functional; remark: listed apart in the source
[23] = target: T6, Tyrosine-protein phosphatase non-receptor type 7 (Homo sapiens, UniProt P35236); format: functional
T6 sequence (P35236 whole entry): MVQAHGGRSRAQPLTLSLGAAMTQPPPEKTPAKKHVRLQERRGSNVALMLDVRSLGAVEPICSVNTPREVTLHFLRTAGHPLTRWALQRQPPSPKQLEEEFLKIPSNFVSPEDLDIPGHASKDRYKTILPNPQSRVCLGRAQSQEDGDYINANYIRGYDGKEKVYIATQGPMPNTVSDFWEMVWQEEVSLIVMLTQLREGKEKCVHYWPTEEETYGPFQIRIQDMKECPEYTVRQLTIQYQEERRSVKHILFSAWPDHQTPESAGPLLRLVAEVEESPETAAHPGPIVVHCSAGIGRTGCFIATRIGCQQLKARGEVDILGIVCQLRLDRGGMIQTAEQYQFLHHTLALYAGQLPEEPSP

[24] = target: Sphingosine 1-phosphate receptor 1 (Homo sapiens, UniProt P21453); test: Late stage counterscreen assay for S1P4 antagonists: Fluorescence dose response cell-based screening assay for antagonists of the Sphingosine 1-Phosphate Receptor 1 (S1P1). [Related pubchem assays (depositor defined):AID1510, AID1524, AID1692, AID1853, AID2332, AID489009, AID489017]; format: functional
Sphingosine 1-phosphate receptor 1, sequence (P21453 whole entry): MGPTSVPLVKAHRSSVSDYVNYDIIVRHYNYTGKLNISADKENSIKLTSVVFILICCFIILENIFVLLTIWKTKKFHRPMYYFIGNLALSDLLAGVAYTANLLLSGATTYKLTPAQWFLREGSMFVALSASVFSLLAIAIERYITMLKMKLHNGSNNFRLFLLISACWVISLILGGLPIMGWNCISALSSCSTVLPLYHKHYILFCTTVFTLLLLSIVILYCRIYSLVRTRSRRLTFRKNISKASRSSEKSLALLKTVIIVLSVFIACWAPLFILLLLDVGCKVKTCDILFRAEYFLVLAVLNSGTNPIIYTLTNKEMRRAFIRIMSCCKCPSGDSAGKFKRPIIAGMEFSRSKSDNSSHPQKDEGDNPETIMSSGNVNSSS

[25] = target: Sphingosine 1-phosphate receptor 2 (Homo sapiens, UniProt O95136); test: Late stage counterscreen assay for S1P4 antagonists: Fluorescence dose response cell-based screening assay for antagonists of the Sphingosine 1-Phosphate Receptor 2 (S1P2). [Related pubchem assays (depositor defined):AID1510, AID1524, AID1692, AID1853, AID2332, AID489009, AID489017]; format: functional
[26] = target: Sphingosine 1-phosphate receptor 5 (Homo sapiens, UniProt Q9H228); test: Late stage counterscreen assay for S1P4 antagonists: Fluorescence dose response cell-based screening assay for antagonists of the Sphingosine 1-Phosphate Receptor 5 (S1P5). [Related pubchem assays (depositor defined):AID1510, AID1524, AID1692, AID1853, AID2332, AID489009, AID489017]; format: functional
Sphingosine 1-phosphate receptor 5, sequence (Q9H228 whole entry): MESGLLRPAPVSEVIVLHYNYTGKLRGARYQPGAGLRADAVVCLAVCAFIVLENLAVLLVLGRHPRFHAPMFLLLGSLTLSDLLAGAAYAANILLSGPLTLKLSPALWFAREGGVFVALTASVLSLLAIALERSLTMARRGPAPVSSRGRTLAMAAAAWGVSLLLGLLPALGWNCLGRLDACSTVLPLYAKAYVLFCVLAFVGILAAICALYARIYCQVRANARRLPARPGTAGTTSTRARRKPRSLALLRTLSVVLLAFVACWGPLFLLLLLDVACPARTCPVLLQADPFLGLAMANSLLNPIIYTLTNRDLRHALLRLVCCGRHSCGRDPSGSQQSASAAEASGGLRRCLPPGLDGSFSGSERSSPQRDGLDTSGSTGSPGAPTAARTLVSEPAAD

[27] = target: Sphingosine 1-phosphate receptor 3 (Homo sapiens, UniProt Q99500); test: Late stage counterscreen assay for S1P4 antagonists: Fluorescence dose response cell-based screening assay for antagonists of the Sphingosine 1-Phosphate Receptor 3 (S1P3). [Related pubchem assays (depositor defined):AID1510, AID1524, AID1692, AID1853, AID2332, AID489009, AID489017]; format: functional
Sphingosine 1-phosphate receptor 3, sequence (Q99500 whole entry): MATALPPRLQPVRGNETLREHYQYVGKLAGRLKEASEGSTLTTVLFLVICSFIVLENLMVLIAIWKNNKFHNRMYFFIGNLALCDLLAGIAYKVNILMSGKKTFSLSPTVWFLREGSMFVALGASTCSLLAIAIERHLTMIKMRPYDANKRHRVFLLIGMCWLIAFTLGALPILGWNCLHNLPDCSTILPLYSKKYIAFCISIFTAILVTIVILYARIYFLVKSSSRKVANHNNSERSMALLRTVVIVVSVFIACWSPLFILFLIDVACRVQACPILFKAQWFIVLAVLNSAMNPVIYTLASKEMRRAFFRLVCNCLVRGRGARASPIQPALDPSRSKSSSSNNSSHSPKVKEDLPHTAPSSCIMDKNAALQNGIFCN

Genome polyprotein, sequence (P29990 2492-3391 limits assumed): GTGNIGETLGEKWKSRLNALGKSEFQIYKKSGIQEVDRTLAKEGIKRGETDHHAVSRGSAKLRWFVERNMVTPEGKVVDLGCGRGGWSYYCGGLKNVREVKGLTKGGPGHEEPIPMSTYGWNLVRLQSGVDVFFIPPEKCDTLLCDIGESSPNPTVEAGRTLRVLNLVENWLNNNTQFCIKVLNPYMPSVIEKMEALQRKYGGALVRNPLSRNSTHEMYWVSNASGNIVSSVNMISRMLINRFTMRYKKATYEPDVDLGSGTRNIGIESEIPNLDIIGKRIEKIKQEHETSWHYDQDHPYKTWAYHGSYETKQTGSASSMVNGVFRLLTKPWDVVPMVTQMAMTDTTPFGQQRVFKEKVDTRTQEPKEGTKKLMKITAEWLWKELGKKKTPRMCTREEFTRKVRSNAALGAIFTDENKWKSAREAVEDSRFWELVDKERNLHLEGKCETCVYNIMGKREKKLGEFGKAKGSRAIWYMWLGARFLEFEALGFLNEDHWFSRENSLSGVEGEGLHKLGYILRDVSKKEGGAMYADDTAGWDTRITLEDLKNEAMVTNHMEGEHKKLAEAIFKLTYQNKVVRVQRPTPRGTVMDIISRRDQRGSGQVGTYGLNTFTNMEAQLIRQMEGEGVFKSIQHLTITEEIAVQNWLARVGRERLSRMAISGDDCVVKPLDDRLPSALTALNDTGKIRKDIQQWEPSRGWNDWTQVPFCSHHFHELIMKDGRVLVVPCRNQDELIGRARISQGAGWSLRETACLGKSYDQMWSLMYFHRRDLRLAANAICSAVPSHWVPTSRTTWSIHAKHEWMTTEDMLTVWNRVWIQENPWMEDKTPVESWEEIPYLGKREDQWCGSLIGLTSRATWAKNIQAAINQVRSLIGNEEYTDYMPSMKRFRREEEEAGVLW

O=C1NC(=O)C(=Cc2ccc(Sc3ccccc3)o2)C(=O)N1
active: IC50 [1] > 100 µM | IC50 [2] 369 µM | EC50 [3] 11.2 µM | AC50 [4] 10.6 µM

Cc1ccc(N2C(=O)/C(=C\Nc3ccccc3-c3nnc(S)nc3O)c3ccccc3C2=O)cc1C
> 79.4 µM (not active): EC50 [18]
inactive: EC50 [8] 26.6 µM | EC50 [15] > 180 µM
13.2 µM (not active): EC50 [6]
> 150 µM (not active): EC50 [14]
active: IC50 [5] 11.2 µM | EC50 [7] 798 nM | IC50 [1] 31.5 µM | EC50 [9] 262 nM | IC50 [10] 39.2 µM | CC50 [11] > 40 µM | EC50 [12] 13.8 µM | IC50 [13] 3.94 µM | AC50 [16] 33.6 µM | EC50 [17] 23 µM | IC50 [19] 3.26 µM
inconclusive: EC50 [20] 16 µM

Cc1ccc(-n2c(=O)c3sccc3n(CC(=O)NCC3CCCO3)c2=O)cc1F (stereo unspecified)
inactive: IC50 [21] > 79.4 µM | IC50 [22] > 79.4 µM | IC50 [23] > 79.4 µM

Cc1cccc(C)c1NC(=O)c1ccc(-c2cc(F)ccc2F)o1
inactive: IC50 [24] > 25 µM | IC50 [25] 16.9 µM | IC50 [26] > 25 µM | IC50 [27] > 25 µM

COc1ccc(OC(C)C(=O)N2CC(C)OC(C)C2)cc1 (stereo unspecified)
inactive: IC50 [21] > 79.4 µM | IC50 [22] > 79.4 µM | IC50 [23] > 79.4 µM
